Here are results for 1 compound from patent US11040038B2, “Methods for treating diseases associated with abnormal ACVR1 expression and ACVR1 inhibitors for use in the same” (Sumitomo Dainippon Pharma Oncology, Inc., priority 2018, dated 2021).

Positions count from the first letter of the chain named. Read-outs that look alike come from different tables or passages of the source.

By IC50 is commonly meant the point on the concentration scale where inhibition reaches its midpoint. In general, EC50 refers to the concentration needed to bring the measured effect to its halfway point. The term AUC(0-t) denotes exposure summed from dosing to a finite time, without extrapolation to infinity. As usually defined, the Cmax is the peak of the concentration-time curve. By Tmax is commonly meant the time at which the peak concentration occurs. The term half-life denotes the time needed for the level to fall by half in the phase considered. A lower half-life goes with fast loss. The AUC(0-inf) is the area under the concentration-time curve extrapolated to infinity. Read a high AUC(0-inf) as more exposure. In general, AUC refers to concentration integrated over time.

The target in one series is T1, ACVR1 G328V (Homo sapiens, UniProt Q04771, G328V).
T1 sequence (Q04771 21-509 G328V): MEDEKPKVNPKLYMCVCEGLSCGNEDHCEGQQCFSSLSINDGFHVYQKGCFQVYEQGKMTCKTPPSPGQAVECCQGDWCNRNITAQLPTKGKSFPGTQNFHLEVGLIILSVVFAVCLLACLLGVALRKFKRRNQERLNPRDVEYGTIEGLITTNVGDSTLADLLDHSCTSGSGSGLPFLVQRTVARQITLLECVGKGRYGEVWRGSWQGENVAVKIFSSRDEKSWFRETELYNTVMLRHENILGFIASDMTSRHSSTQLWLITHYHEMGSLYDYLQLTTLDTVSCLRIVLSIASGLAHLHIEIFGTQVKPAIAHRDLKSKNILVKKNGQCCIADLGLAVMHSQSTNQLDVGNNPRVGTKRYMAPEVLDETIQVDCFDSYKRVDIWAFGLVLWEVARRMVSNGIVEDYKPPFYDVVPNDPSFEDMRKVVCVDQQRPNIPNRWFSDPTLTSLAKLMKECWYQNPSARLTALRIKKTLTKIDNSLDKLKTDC
Description: ACVR1 kinase assay, casein substrate, 33P-ATP, filter binding. The series is classed as biochemical. Particulars: 10 μM ATP. As to the method: (§1) In brief, casein-based substrates were prepared. The respective ACVR1 kinase was added to the substrate mixture and hot/cold 33P-ATP (10 μM) was added to initiate the reaction. The activity was then measured with a filter binding method.
(§2) The IC50 values against the kinases are listed below in Table 3.

For the next series, the target named is T2, ACVR1 R258G (Homo sapiens, UniProt Q04771, R258G).
T2 sequence (Q04771 21-509 R258G): T1 sequence (Q04771 21-509 G328V) with R238G, V308G
The description is as above. The class given is biochemical. Particulars: 10 μM ATP. As to the method: as §1, §2

The subject of series [1] is hepcidin expression in HepG2 cells. In words: Inhibition of hepcidin expression in HepG2 cells (qPCR). The series is classed as cell-based. Particulars: Homo sapiens. As to the method: To evaluate the in vitro efficacy of Compound 2, HepG2 cells were stimulated with the ALK2 ligand BMP-2 in the presence or absence of various concentrations of Compound 2 and the resulting levels of hepcidin expression were measured by qPCR. The results shown in FIG. 2A, reveal a strong, dose responsive inhibition of hepcidin transcription by Compound 2 (EC50<1 nM). Effects on basal hepcidin transcription were also measured (in the absence of BMP-2 stimulation) and the results are shown in FIG. 2B. Under these experimental conditions, Compound 2 inhibited hepcidin expression in a dose responsive manner (IC50˜100 nM).
A general note: Quantitative PCR measures a nucleic acid by following its amplification.

Series [2] relates to ACVR1 mutant (G328V mutated cell line) and wild type DIPG cell lines. In words: Proliferation assay against DIPG cell lines. The class given is cell-based. Particulars: ACVR1 G328V mutant vs wild type DIPG cell lines. As to the method:
Compound 2 was tested in a proliferation assay against ACVR1 mutant (G328V mutated cell line) and wild type DIPG cell lines in vitro.

Series [3] in a line: Preliminary brain PK study. The series is classed as in vivo. Particulars: mouse, mice, brain tissue. As to the method:
In order to be an effective treatment for DIPG, Compound 2 needs to distribute to the brain and more importantly, achieve fairly deep penetration to the pons region of the brain. To assess the general distribution of Compound 2 to the brain, a preliminary brain PK study was conducted. Brain tissue concentrations show very good distribution to the brain (FIG. 4A).

Series [4] is described as follows: Comparison of concentration in plasma and brain tissue. The class given is in vivo, mice. Particulars: 20 mg/kg. From the text: Additionally, a comparison of Compound 2 concentration in the plasma and brain tissue was made, the results of which are in FIG. 4B and Table 6.
Where [5] appears, read: Table 4, route and dose not given.
Where [6] appears, read: Table 5, route and dose not given.

Turning to `COc1cc(Nc2nccc(Nc3cccnc3-c3ccccn3)n2)ccc1N1CCN(C)CC1` [Compound 2, N^4-(2,2′-bipyridin-3-yl)-N^2-(3-methoxy-4-(4-methylpiperazin-1-yl)phenyl)pyrimidine-2,4-diamine], the IC50 at ACVR1 G328V is 13.8 nM; on ACVR1 R258G, 51.6 nM; in series [1] (absence of BMP-2 stimulation, read-out: IC50, inhibition of basal hepcidin expression) it was about 100 nM. The EC50 in series [1] (BMP-2 stimulation, qPCR, read-out: EC50, inhibition of hepcidin transcription) was under 1 nM. The “Activity in proliferation assay” value in series [2] was “selective activity against the mutated cell line”. Besides, the exposure AUC(0-t) in series [3] (setting [5]) amounted to 750 ng·h/mL; in series [3] (setting [6]), 10300 ng·h/mL. For the same compound, the Cmax stood at 691 ng/g in series [3] (setting [5]); 2740 ng/g in series [3] (setting [6]); 1690 ng/g in series [4] (CD-1, mouse, po, brain); 378 ng/mL in series [4] (CD-1, mouse, po, plasma). The time to peak (Tmax) in series [3] (setting [5]) was 4.98 min; in series [3] (setting [6]) it was 108 min. Further, the half-life is 73.8 min in series [3] (setting [5]) and 154 min in series [3] (setting [6]). Also, the total exposure AUC(0-inf) came out at 758 ng·h/mL in series [3] (Table 4, route and dose not printed (FIG. 4A: intravenous and oral)); 10300 ng·h/mL in series [3] (Table 5, route and dose not printed (FIG. 4A: intravenous and oral)). Besides, the AUC in series [4] (CD-1, mouse, po, plasma, read-out: AUC) was 2340 ng·h/mL; in series [4] (brain) it was 7,765 ng/g · hr.
